The source of these data is patent US20250127778A1, “CANCER IMMUNOTHERAPY COMPOSITION CONTAINING INTERACTION INHIBITOR OF STING AND TRIM29 AS ACTIVE INGREDIENT” (SPARK BIOPHARMA, INC, priority 2021, published 2025).

In assay [1] the target is T1, STING (Mus musculus, UniProt Q3TBT3).
T1 sequence (Q3TBT3 1-378): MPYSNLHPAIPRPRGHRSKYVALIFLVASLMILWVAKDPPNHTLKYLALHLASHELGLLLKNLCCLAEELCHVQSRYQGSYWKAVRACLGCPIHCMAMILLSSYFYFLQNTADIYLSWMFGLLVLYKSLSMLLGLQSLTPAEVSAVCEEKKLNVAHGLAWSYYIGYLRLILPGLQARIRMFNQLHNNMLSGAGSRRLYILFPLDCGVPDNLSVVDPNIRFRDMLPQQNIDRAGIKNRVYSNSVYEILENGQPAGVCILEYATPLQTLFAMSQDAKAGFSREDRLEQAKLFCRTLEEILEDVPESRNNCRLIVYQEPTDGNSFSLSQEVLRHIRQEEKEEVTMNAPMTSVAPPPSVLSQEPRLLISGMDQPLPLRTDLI
The assay can be described thus: STING expression level in immune cells inside tumor by flow cytometry. As to conditions: compound alone, FIG. 28. In kind it is in vivo. On the procedure:
As described above, after euthanasia with carbon dioxide, the tumor was extracted, TIL was separated, and intracellular STING staining was performed in the same manner as in <Example 6>.
(In general: A flow cytometer gives signals particle by particle.)

The test system of assay [2] is bone-marrow derived dendritic cells (BMDC) and OT-1 T cells. The assay can be described thus: BMDC cross-antigen presentation with killed MC38 or MC38-OVA tumor cells. In kind it is cell-based, mouse. As to conditions: with cGAMP, FIG. 19. On the procedure:
In the same manner as <Experimental Example 7> above, mouse bone marrow-derived cells were obtained and differentiated. On the sixth day, 2×10^6 dendritic cells (BMDC) were co-cultured with 2×10^6 of MC38 or MC38-OVA tumor cells frozen-thawed three times and treated with cGAMP and/or the compound of Formula 1 in various concentrations. The cells were cultured at 37° C. in a 5% CO2 incubator for 24 hours, and then flow cytometry of dendritic cell activation markers (CD80, CD86, MHC II) was performed. Then, 5×10^4 cells were incubated with 2×10^5 CFSE-labeled OT-1 T cells (OVA-specific CD8^+ T cells) to observe OT-1 T cell proliferation.

For assay [3], the system named is phosphorylation of downstream signaling proteins TBK1 and IRF3. Description: Western blotting of STING sub-immune signaling pathway activation. It counts as cell-based. Particulars: in combination with cGAMP; FIG. 7. The method, then: First, the A431 cell line was seeded in a transparent 12-well plate and cultured for one day. Thereafter, the cells were treated with the compounds of Formulas 1 to 6, respectively, and then cultured for additional 24 hours. Finally, after supernatant culture medium of the cells was removed, the remaining supernatant was diluted and removed with PBS (phosphate buffer saline) to prepare a Western blotting sample. All procedures for preparing Western blotting sample were performed at 4° C. […] The protein concentration of the supernatant was measured by using the Micro BCA™ protein assay kit (ThermoFisher) according to the protocol of the manufacturer. […] The treated samples were analyzed by SDS-PAGE, then transferred to a PVDF membrane, and cultured in a TBST solution containing 4% BSA for 30 minutes. […] Finally, after four TBST washing processes, the solution was developed with an ECL (enhanced chemiluminescence) prime solution of Amersham, the chemical luminescence signal was measured by using ChemiDoc MP of Bio-Rad Laboratories, Inc., the obtained results were quantified by using the ImageLab 6.0 program, and the results were plotted by using the Prism 8.0 program. […]
On the technique in general: In western blotting, separated proteins are transferred to a membrane and probed.

Assay [4] deals with T1, STING. The assay can be described thus: Western blotting of intracellular STING in Raw264.7 cells. More on the design: endogenous in cells; host or cells: Raw264.7. Particulars: concentration-dependent, FIG. 16. It counts as cell-based.
Assay [5] has as its target STING (Homo sapiens, UniProt Q86WV6). Description: CETSA and ITDRF in A431 cells, STING. Details: endogenous in cells; host or cells: A431. It counts as binding. From the text:
It was verified whether the oxopiperazine derivative of the present invention was bound to STING among STING and TRIM29 to inhibit interaction thereof, based on the compound of Formula 1, by the cellular thermal shift assay (CETSA) and the isothermal dose response fingerprint (ITDRF) which were major technologies for verifying the interaction between small molecule compounds and target proteins. (D. M. Molinaetal., Science 2013, 341, 84-87.)
To verify the target of the compound of Formula 1 using the CETSA technique, the human A431 cell lines and mouse Raw264.7 cell lines were seeded on a 100-mm or 150-mm culture dish and cultured for one day. […] Afterwards, centrifugation was performed at 20000 g for 20 minutes at 4° C., the supernatant was transferred to a new container, and each concentration was measured by using the Micro BCA™ protein assay kit (ThermoFisher) according to the protocol of the manufacturer. The concentration of each sample was equally adjusted by using the RIPA lysis buffer, the 5× SDS-PAGE loading buffer (Biosesang) was added according to the ratio of the manufacturer, and the resultant was treated at 95° C. for 5 minutes and analyzed by using the Western blotting method described above.

Chain of STING (Homo sapiens, UniProt Q86WV6) (Q86WV6 whole entry H232R): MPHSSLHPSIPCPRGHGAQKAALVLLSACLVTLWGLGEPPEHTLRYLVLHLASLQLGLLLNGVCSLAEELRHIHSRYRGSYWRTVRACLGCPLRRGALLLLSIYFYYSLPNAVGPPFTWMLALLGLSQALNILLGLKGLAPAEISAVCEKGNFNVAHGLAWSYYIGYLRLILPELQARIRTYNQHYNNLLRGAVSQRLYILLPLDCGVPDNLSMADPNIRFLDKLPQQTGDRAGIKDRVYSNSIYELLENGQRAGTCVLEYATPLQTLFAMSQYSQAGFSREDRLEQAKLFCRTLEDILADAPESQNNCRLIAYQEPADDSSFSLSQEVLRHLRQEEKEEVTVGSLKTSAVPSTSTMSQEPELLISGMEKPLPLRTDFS

Regarding `COc1ccc(CC2=CN(c3ccc(C(=O)NC[C@H]4CCCO4)cc3[N+](=O)[O-])[C@H](C(C)C)C(=O)N2Cc2ccc(O)cc2)cc1` [Formula 1, 4-((R)-4-(4-hydroxybenzyl)-2-isopropyl-5-(4-methoxybenzyl)-3-oxo-3,4-dihydropyrazin-1 (2H)-yl)-3-nitro-N-(((R)-tetrahydrofuran-2-yl)methyl)benzamide], the “amount of STING in tumor-associated macrophages (TAM) and dendritic cells (DC)” value in assay [1] (tumor extracted one day after final treatment) is given as “increased”. In addition, the “effect of increasing STING in M1 compared to M2 macrophages” value in assay [1] was “more noticeably exhibited in M1 macrophages”. For the same compound, the “OT-1 T cell proliferation (cross-antigen presentation)” value in assay [2] (MC38 control group) is given as “such an effect did not occur at all”; in assay [2] (killed MC38-OVA cells, concentration-dependent) it was “promoted cell proliferation”. For the same compound, in assay [3], the “degree of phosphorylation of TBK1 and IRF3” value is on record as “further increased”. For the same compound, in assay [4], the “intracellular amount of STING” value is listed as “increased”. For the same compound, in assay [5] (FIG. 11), the “CETSA thermal stability of STING” value is listed as “induced thermal destabilization by selective binding only to STING”. For the same compound, the “ITDRF thermal stability of STING” value in assay [5] (FIG. 12) is on record as “reduced the thermal stability of STING at high concentrations in a concentration-dependent manner”.
